Data taken from patent publication US11420970B1 (NOVARTIS AG, priority 2019, dated 2022).

Assays:
[1] = system: cellular H3K36me2 level in thyroid carcinoma cell line CGTH-W-1 (NSD2 E1099K); experiment: H3K36me2 cellular ELISA assay in CGTH-W-1 line; type: cell-based; details: Homo sapiens, CGTH-W-1, 72 h, read-out: H3K36me2 ELISA in CGTH-W-1
Outline: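 CGTH-W-1 thyroid carcinoma cells (NSD2 E1099K gain-of-function) exposed to compound for 72 hours. Histone-bound plates probed for H3K36me2 and total H3 by chemiluminescent ELISA. Viability checked on a parallel plate with CellTiter-Glo.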

NSD2 [1-1365] = NSD2 [1-1365] (Homo sapiens (Human), UniProt O96028); experiment: LC-MS/MS-based NSD2 enzymatic assay (SAH production); type: biochemical; details: read-out: NSD2 IC50
NSD2 [1-1365], sequence (O96028 whole entry): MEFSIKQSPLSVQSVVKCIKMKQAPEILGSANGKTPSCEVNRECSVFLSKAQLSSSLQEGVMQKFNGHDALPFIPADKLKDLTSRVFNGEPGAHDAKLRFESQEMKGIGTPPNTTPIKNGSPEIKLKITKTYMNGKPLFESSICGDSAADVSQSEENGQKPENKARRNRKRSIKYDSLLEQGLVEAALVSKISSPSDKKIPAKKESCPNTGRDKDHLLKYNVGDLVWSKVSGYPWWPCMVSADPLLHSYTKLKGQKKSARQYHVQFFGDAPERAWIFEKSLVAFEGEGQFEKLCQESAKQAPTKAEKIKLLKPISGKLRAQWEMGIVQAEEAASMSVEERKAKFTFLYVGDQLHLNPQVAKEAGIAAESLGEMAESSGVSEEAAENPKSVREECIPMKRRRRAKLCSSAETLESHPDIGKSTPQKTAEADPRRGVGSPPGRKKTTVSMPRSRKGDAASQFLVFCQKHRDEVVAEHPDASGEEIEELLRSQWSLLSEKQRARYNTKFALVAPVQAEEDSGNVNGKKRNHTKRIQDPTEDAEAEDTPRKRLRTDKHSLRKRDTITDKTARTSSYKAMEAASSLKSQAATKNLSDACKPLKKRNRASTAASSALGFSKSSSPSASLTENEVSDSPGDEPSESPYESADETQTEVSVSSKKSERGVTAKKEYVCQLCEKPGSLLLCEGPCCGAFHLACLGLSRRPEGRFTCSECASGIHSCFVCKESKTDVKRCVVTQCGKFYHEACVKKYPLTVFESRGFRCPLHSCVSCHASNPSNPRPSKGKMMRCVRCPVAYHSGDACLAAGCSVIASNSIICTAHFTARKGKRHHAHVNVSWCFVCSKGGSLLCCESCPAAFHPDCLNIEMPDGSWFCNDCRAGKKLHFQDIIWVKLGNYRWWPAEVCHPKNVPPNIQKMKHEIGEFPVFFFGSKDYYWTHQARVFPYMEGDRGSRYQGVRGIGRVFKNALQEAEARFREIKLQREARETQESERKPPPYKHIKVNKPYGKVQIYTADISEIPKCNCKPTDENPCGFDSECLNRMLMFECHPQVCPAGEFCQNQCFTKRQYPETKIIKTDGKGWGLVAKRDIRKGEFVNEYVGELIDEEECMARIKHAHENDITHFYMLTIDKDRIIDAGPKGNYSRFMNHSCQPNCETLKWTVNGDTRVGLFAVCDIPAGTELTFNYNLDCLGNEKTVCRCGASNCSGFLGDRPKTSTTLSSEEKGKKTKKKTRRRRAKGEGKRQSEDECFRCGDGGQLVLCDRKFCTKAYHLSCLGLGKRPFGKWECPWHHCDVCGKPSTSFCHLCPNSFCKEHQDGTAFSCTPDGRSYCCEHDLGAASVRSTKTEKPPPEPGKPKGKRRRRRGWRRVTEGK
Outline: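 Full-length NSD2 [1-1365] (8 nM final) with 1 μM SAM and 400 nM mouse-liver nucleosome in Tris pH 8.0 buffer; inhibitor preincubated 20 min with enzyme/SAM before nucleosome addition. Reaction 90 min at room temperature, TFA-quenched; SAH quantified by LC-MS/MS against d4-SAH internal standard and SAH standard curve.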

[2] = system: cellular H3K36me2 level in multiple myeloma cell line KMS11 (t(4;14)+); experiment: H3K36me2 cellular ELISA assay in KMS11-Par line; type: cell-based; details: Homo sapiens, KMS-11; KMS11-Par line, ELISA, 72 hours; read-out: H3K36me2 ELISA in KMS11-Par
Outline: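 KMS11 cells were seeded a day ahead at 1,250 per well in Opti-MEM with B-27/N2, then treated with compound for 72 h. Histones were acid-extracted with 0.4M HCl, and H3K36me2 and total H3 were read by chemiluminescent ELISA. Viability was checked with CellTiter-Glo on a parallel plate in maintenance media.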

COc1ccc(-c2cc(Cn3cnc4c(N)ncnc43)c(N3CCC[C@](N)(c4ccc(F)c(Cl)n4)C3)cn2)cc1F [Example 188, (R)-9-((5-(3-amino-3-(6-chloro-5-fluoropyridin-2-yl)piperidin-1-yl)-2-(3-fluoro-4-methoxyphenyl)pyridin-4-yl)methyl)-9H-purin-6-amine]
IC50 [1]: 1010 nM
IC50 (NSD2 [1-1365]): 1 to 10 nM
IC50 [2]: 1910 nM

Cc1nc([C@@]2(N)CCCN(c3cnc(-c4ccc(F)cc4)cc3Cn3cnc4c(N)ncnc43)C2)ccc1F [Example 190, (R)-9-((5-(3-amino-3-(5-fluoro-6-methylpyridin-2-yl)piperidin-1-yl)-2-(4-fluorophenyl)pyridin-4-yl)methyl)-9H-purin-6-amine]
IC50 [1]: 258 nM
IC50 (NSD2 [1-1365]): 1 to 10 nM
IC50 [2]: 687 nM

Nc1ncnc2c1ncn2Cc1cc(-c2ccc(F)c(Cl)n2)ncc1N1CCC[C@](N)(c2cccc(Cl)n2)C1 [Example 191, (R)-9-((5-(3-amino-3-(6-chloropyridin-2-yl)piperidin-1-yl)-6′-chloro-5′-fluoro-[2,2′-bipyridin]-4-yl)methyl)-9H-purin-6-amine]
IC50 [1]: 1380 nM
IC50 (NSD2 [1-1365]): 10 to 1000 nM
IC50 [2]: 4560 nM

Nc1ncnc2c1ncn2Cc1cc(-c2ccc(F)c(F)c2)ncc1N1CCC[C@](N)(c2nc(Cl)ccc2F)C1 [Example 192, (R)-9-((5-(3-amino-3-(6-chloro-3-fluoropyridin-2-yl)piperidin-1-yl)-2-(3,4-difluorophenyl)pyridin-4-yl)methyl)-9H-purin-6-amine]
IC50 [1]: 731 nM
IC50 (NSD2 [1-1365]): 10 to 1000 nM
IC50 [2]: 2180 nM

Nc1ncnc2c1ncn2Cc1cc(-c2ccc(F)cc2)ncc1N1CCCC(N)(c2ccc(F)c(CF)n2)C1 (stereo not drawn) [Example 193, 9-((5-(3-amino-3-(5-fluoro-6-(fluoromethyl)pyridin-2-yl)piperidin-1-yl)-2-(4-fluorophenyl)pyridin-4-yl)methyl)-9H-purin-6-amine]
IC50 [1]: 876 nM
IC50 (NSD2 [1-1365]): 10 to 1000 nM
IC50 [2]: 1850 nM

COc1ccc(-c2cc(Cn3cnc4c(N)ncnc43)c(N3CCC[C@](N)(c4cccc(Cl)n4)C3)cn2)nc1Cl [Example 194, (R)-9-((5-(3-amino-3-(6-chloropyridin-2-yl)piperidin-1-yl)-6′-chloro-5′-methoxy-[2,2′-bipyridin]-4-yl)methyl)-9H-purin-6-amine]
IC50 [1]: 805 nM
IC50 (NSD2 [1-1365]): 10 to 1000 nM
IC50 [2]: 3280 nM

Nc1ncnc2c1ncn2Cc1cc(-c2ccc(F)cn2)ncc1N1CCC[C@](N)(c2cccc(Cl)n2)C1 [Example 196, (R)-9-((5-(3-amino-3-(6-chloropyridin-2-yl)piperidin-1-yl)-5′-fluoro-[2,2′-bipyridin]-4-yl)methyl)-9H-purin-6-amine]
IC50 [1]: 637 nM
IC50 (NSD2 [1-1365]): 10 to 1000 nM
IC50 [2]: 2690 nM

Nc1ncnc2c1ncn2Cc1cc(-c2ccc(F)c(F)c2)ncc1N1CCC[C@](N)(c2ccccn2)C1 [Example 198, (R)-9-((5-(3-amino-3-(pyridin-2-yl)piperidin-1-yl)-2-(3,4-difluorophenyl)pyridin-4-yl)methyl)-9H-purin-6-amine]
IC50 [1]: 17.7 nM
IC50 (NSD2 [1-1365]): 1 to 10 nM
IC50 [2]: 41 nM

Nc1ncnc2c1ncn2Cc1cc(-c2ccc(F)c(F)c2)ncc1N1CCC[C@](N)(c2cccc(Cl)n2)C1 [Example 200, (R)-9-((5-(3-amino-3-(6-chloropyridin-2-yl)piperidin-1-yl)-2-(3,4-difluorophenyl)pyridin-4-yl)methyl)-9H-purin-6-amine]
IC50 [1]: 180 nM
IC50 (NSD2 [1-1365]): 1 to 10 nM
IC50 [2]: 330 nM

Nc1ncnc2c1ncn2Cc1cc(-c2ccc(F)c(F)c2)ncc1N1CCC[C@](N)(c2cccc(F)n2)C1 [Example 201, (R)-9-((5-(3-amino-3-(6-fluoropyridin-2-yl)piperidin-1-yl)-2-(3,4-difluorophenyl)pyridin-4-yl)methyl)-9H-purin-6-amine]
IC50 [1]: 123 nM
IC50 (NSD2 [1-1365]): 1 to 10 nM
IC50 [2]: 286 nM

Nc1ncnc2c1ncn2Cc1cc(-c2ccc(F)c(F)c2)ncc1N1CCC[C@](N)(c2cc(O)cc(F)n2)C1 [Example 206, (R)-2-(3-amino-1-(4-((6-amino-9H-purin-9-yl)methyl)-6-(3,4-difluorophenyl)pyridin-3-yl)piperidin-3-yl)-6-fluoropyridin-4-ol]
IC50 [1]: 117 nM
IC50 (NSD2 [1-1365]): 1 to 10 nM
IC50 [2]: 1160 nM

C[C@@H](F)c1cccc([C@@]2(N)CCCN(c3cnc(-c4ccc(F)cc4)cc3Cn3cnc4c(N)ncnc43)C2)n1 [Example 212, 9-((5-((R)-3-amino-3-(6-((R)-1-fluoroethyl)pyridin-2-yl)piperidin-1-yl)-2-(4-fluorophenyl)pyridin-4-yl)methyl)-9H-purin-6-amine]
IC50 [1]: 132 nM
IC50 (NSD2 [1-1365]): 10 to 1000 nM
IC50 [2]: 289 nM

COc1ccc(-c2cc(Cn3cnc4c(N)ncnc43)c(N3CCC[C@](N)(c4cccc(Cl)n4)C3)cn2)cc1F [Example 213, (R)-9-((5-(3-amino-3-(6-chloropyridin-2-yl)piperidin-1-yl)-2-(3-fluoro-4-methoxyphenyl)pyridin-4-yl)methyl)-9H-purin-6-amine]
IC50 [1]: 258 nM
IC50 (NSD2 [1-1365]): 1 to 10 nM
IC50 [2]: 387 nM

Nc1ncnc2c1ncn2Cc1cc(-c2ccc(F)c(F)c2)ncc1N1CCCC(N)(c2ccc(O)c(F)n2)C1 (stereo not drawn) [Example 214, 6-(3-amino-1-(4-((6-amino-9H-purin-9-yl)methyl)-6-(3,4-difluorophenyl)pyridin-3-yl)piperidin-3-yl)-2-fluoropyridin-3-ol]
IC50 [1]: 444 nM
IC50 (NSD2 [1-1365]): 10 to 1000 nM
IC50 [2]: 2430 nM

COc1ccc(-c2cc(Cn3cnc4c(N)ncnc43)c(N3CCC[C@](N)(c4ccc(F)c(Cl)n4)C3)cn2)cc1 [Example 216, (R)-9-((5-(3-amino-3-(6-chloro-5-fluoropyridin-2-yl)piperidin-1-yl)-2-(4-methoxyphenyl)pyridin-4-yl)methyl)-9H-purin-6-amine]
IC50 [1]: 1880 nM
IC50 (NSD2 [1-1365]): 10 to 1000 nM
IC50 [2]: 2570 nM

Nc1ncnc2c1ncn2Cc1cc(-c2ccc(F)c(F)c2)ncc1N1CCC[C@](N)(c2cc(O)cc(Cl)n2)C1 [Example 219, (R)-2-(3-amino-1-(4-((6-amino-9H-purin-9-yl)methyl)-6-(3,4-difluorophenyl)pyridin-3-yl)piperidin-3-yl)-6-chloropyridin-4-ol]
IC50 [1]: 407 nM
IC50 (NSD2 [1-1365]): 1 to 10 nM
IC50 [2]: 3450 nM

Nc1ncnc2c1ncn2Cc1cc(-c2ccc(F)cc2)ncc1N1CCC[C@](N)(c2ccc(F)c(Cl)n2)C1 [Example 221, (R)-9-((5-(3-amino-3-(6-chloro-5-fluoropyridin-2-yl)piperidin-1-yl)-2-(4-fluorophenyl)pyridin-4-yl)methyl)-9H-purin-6-amine]
IC50 [1]: 269 nM
IC50 (NSD2 [1-1365]): 1 to 10 nM
IC50 [2]: 1290 nM

COc1ccc(-c2cc(Cn3cnc4c(N)ncnc43)c(N3CCC[C@](N)(c4cccc(Cl)n4)C3)cn2)nc1F [Example 224, (R)-9-((5-(3-amino-3-(6-chloropyridin-2-yl)piperidin-1-yl)-6′-fluoro-5′-methoxy-[2,2′-bipyridin]-4-yl)methyl)-9H-purin-6-amine]
IC50 [1]: 348 nM
IC50 (NSD2 [1-1365]): 1 to 10 nM
IC50 [2]: 1710 nM

Nc1ncnc2c1ncn2Cc1cc(-c2ccc(F)c(F)c2)ncc1N1CCC[C@](N)(c2cccc(CF)n2)C1 [Example 226, (R)-9-((5-(3-amino-3-(6-(fluoromethyl)pyridin-2-yl)piperidin-1-yl)-2-(3,4-difluorophenyl)pyridin-4-yl)methyl)-9H-purin-6-amine]
IC50 [1]: 66.8 nM
IC50 (NSD2 [1-1365]): 1 to 10 nM
IC50 [2]: 169 nM

Nc1ncnc2c1ncn2Cc1cc(-c2ccc(F)c(F)c2)ncc1N1CCC[C@](N)(c2cccc(C(F)F)n2)C1 [Example 227, (R)-9-((5-(3-amino-3-(6-(difluoromethyl)pyridin-2-yl)piperidin-1-yl)-2-(3,4-difluorophenyl)pyridin-4-yl)methyl)-9H-purin-6-amine]
IC50 [1]: 133 nM
IC50 (NSD2 [1-1365]): 10 to 1000 nM
IC50 [2]: 302 nM

Cc1ccc(-c2cc(Cn3cnc4c(N)ncnc43)c(N3CCCC(N)(c4cccc(Cl)n4)C3)cn2)cn1 (stereo not drawn) [Example 229, 9-((5-(3-amino-3-(6-chloropyridin-2-yl)piperidin-1-yl)-6′-methyl-[2,3′-bipyridin]-4-yl)methyl)-9H-purin-6-amine]
IC50 [1]: 1970 nM
IC50 (NSD2 [1-1365]): 10 to 1000 nM
IC50 [2]: 7490 nM

COc1ccc(Cl)nc1[C@@]1(N)CCCN(c2cnc(-c3ccc(F)c(F)c3)cc2Cn2cnc3c(N)ncnc32)C1 [Example 230, (R)-9-((5-(3-amino-3-(6-chloro-3-methoxypyridin-2-yl)piperidin-1-yl)-2-(3,4-difluorophenyl)pyridin-4-yl)methyl)-9H-purin-6-amine]
IC50 [1]: 1650 nM
IC50 (NSD2 [1-1365]): 10 to 1000 nM
IC50 [2]: 9980 nM

COc1ncc(-c2cc(Cn3cnc4c(N)ncnc43)c(N3CCC[C@](N)(c4cccc(Cl)n4)C3)cn2)cc1F [Example 231, (R)-9-((5-(3-amino-3-(6-chloropyridin-2-yl)piperidin-1-yl)-5′-fluoro-6′-methoxy-[2,3′-bipyridin]-4-yl)methyl)-9H-purin-6-amine]
IC50 [1]: 2150 nM
IC50 (NSD2 [1-1365]): 10 to 1000 nM
IC50 [2]: 7440 nM
